Patent US20220087996A1, “Histone acetylase p300 inhibitor and use thereof” (HINOVA PHARMACEUTICALS INC., priority 2018, published 2022)
pIC50: −log10 of the molar value. Read-outs that look alike come from different tables or passages of the source.

Key:
MCF-7 = assay: Inhibition of proliferation of MCF-7 cells; type: cell-based; conditions: Homo sapiens, MCF7; Breast cancer cell line MCF-7; read-out: IC50 against MCF-7
Procedure: (§1) 1) CWR22RV1 cells were subcultured in cell culture medium, and the cells in good growth condition were seeded in a 96-well plate, 80 μL for each well, and the cell number in each well was 1500. The plate was incubated overnight in a 37° C., 5% CO2 cell incubator. 2) The drug was prepared as 30 mM stock solution with dimethyl sulfoxide (DMSO). Prior to use, the stock solution was diluted 3 times with DMSO, and then further diluted as 3-fold gradient to obtain 9 concentration gradients. Then, each concentration of compound was diluted 200 times with the culture solution (ensuring that the DMSO concentration in the culture system was 0.1%), and two replicate wells were set for each concentration. 20 μL of diluted compound solution was added to the cell culture well (with final concentrations of 10 μM, 3.3 μM. 1.1 μM . . . ), and the plate was gently shaken to mix. In addition, 3 negative control wells containing only cells and 3 blank control wells containing only culture medium were included (6 wells were each added 20 μL DMSO diluted 200 times with culture medium). 2. Result detection: (1) After culturing for 6 days, 10 μL CCK-8 was added to each well, and the plate was continually cultured in a 37° C., 5% CO2 cell incubator for 2.5 h. (2) The absorbance (OD value) was detected at 450 nm using a multifunctional microplate reader. (3) The data were analyzed by Dose-response-inhibition equation in the software GraphPad Prism6, and the IC50 value was obtained.
(§2) Using the same method as Experimental example 2, CWR22RV1 cells were replaced with tumor cells in Table 3, and the IC50 (nM) of the compound according to the present invention against the activity of these tumor cells was tested and calculated.

HEL = assay: Inhibition of proliferation of HEL cells; type: cell-based; conditions: Homo sapiens; Leukemia cell line HEL; read-out: IC50 against HEL
Procedure: as §1, §2

MOLM-16 = assay: Inhibition of proliferation of MOLM-16 cells; type: cell-based; conditions: MOLM16; Leukemia cell line MOLM-16; read-out: IC50 against MOLM-16
Procedure: as §1, §2

VCAP = assay: Inhibition of proliferation of VCAP cells; type: cell-based; conditions: Homo sapiens; Prostate cancer cell line VCAP; read-out: IC50 against VCAP
Procedure: as §1, §2

BT-474 = assay: Inhibition of proliferation of BT-474 cells; type: cell-based; conditions: Homo sapiens; Breast cancer cell line BT-474; read-out: IC50 against BT-474
Procedure: as §1, §2

RL = assay: Inhibition of proliferation of RL cells; type: cell-based; conditions: Homo sapiens; Lymphoma cell line RL; read-out: IC50 against RL
Procedure: as §1, §2

LNCAP = assay: Inhibition of proliferation of LNCAP cells; type: cell-based; conditions: Homo sapiens; Prostate cancer cell line LNCAP; read-out: IC50 against LNCAP
Procedure: as §1, §2

CWR22RV1 cells = assay: Inhibition of proliferation of CWR22RV1 cells (CCK-8); type: cell-based, human; conditions: Homo sapiens, CWR22Rv1, 144 h, 6 days culture
Summary of the method: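 CWR22RV1 cells (1500/well) were exposed to 9 three-fold compound concentrations (top final 10 μM, 0.1% DMSO) for 6 days. CCK-8 was added for 2.5 h, and absorbance was read at 450 nm. IC50 was fitted with a dose-response-inhibition equation.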

histone acetylase p300 = molecular target: T1, histone acetylase p300 (Homo sapiens, UniProt Q09472); assay: Inhibitory activity on histone acetylase p300 (radioisotope FlashPlate); type: biochemical; conditions: enzyme 0.2 nM, peptide substrate 600 nM, [3H]-Ac-CoA 250 nM; read-out: IC50 against P300
T1 construct: purchased BPS
T1 sequence (Q09472 whole entry): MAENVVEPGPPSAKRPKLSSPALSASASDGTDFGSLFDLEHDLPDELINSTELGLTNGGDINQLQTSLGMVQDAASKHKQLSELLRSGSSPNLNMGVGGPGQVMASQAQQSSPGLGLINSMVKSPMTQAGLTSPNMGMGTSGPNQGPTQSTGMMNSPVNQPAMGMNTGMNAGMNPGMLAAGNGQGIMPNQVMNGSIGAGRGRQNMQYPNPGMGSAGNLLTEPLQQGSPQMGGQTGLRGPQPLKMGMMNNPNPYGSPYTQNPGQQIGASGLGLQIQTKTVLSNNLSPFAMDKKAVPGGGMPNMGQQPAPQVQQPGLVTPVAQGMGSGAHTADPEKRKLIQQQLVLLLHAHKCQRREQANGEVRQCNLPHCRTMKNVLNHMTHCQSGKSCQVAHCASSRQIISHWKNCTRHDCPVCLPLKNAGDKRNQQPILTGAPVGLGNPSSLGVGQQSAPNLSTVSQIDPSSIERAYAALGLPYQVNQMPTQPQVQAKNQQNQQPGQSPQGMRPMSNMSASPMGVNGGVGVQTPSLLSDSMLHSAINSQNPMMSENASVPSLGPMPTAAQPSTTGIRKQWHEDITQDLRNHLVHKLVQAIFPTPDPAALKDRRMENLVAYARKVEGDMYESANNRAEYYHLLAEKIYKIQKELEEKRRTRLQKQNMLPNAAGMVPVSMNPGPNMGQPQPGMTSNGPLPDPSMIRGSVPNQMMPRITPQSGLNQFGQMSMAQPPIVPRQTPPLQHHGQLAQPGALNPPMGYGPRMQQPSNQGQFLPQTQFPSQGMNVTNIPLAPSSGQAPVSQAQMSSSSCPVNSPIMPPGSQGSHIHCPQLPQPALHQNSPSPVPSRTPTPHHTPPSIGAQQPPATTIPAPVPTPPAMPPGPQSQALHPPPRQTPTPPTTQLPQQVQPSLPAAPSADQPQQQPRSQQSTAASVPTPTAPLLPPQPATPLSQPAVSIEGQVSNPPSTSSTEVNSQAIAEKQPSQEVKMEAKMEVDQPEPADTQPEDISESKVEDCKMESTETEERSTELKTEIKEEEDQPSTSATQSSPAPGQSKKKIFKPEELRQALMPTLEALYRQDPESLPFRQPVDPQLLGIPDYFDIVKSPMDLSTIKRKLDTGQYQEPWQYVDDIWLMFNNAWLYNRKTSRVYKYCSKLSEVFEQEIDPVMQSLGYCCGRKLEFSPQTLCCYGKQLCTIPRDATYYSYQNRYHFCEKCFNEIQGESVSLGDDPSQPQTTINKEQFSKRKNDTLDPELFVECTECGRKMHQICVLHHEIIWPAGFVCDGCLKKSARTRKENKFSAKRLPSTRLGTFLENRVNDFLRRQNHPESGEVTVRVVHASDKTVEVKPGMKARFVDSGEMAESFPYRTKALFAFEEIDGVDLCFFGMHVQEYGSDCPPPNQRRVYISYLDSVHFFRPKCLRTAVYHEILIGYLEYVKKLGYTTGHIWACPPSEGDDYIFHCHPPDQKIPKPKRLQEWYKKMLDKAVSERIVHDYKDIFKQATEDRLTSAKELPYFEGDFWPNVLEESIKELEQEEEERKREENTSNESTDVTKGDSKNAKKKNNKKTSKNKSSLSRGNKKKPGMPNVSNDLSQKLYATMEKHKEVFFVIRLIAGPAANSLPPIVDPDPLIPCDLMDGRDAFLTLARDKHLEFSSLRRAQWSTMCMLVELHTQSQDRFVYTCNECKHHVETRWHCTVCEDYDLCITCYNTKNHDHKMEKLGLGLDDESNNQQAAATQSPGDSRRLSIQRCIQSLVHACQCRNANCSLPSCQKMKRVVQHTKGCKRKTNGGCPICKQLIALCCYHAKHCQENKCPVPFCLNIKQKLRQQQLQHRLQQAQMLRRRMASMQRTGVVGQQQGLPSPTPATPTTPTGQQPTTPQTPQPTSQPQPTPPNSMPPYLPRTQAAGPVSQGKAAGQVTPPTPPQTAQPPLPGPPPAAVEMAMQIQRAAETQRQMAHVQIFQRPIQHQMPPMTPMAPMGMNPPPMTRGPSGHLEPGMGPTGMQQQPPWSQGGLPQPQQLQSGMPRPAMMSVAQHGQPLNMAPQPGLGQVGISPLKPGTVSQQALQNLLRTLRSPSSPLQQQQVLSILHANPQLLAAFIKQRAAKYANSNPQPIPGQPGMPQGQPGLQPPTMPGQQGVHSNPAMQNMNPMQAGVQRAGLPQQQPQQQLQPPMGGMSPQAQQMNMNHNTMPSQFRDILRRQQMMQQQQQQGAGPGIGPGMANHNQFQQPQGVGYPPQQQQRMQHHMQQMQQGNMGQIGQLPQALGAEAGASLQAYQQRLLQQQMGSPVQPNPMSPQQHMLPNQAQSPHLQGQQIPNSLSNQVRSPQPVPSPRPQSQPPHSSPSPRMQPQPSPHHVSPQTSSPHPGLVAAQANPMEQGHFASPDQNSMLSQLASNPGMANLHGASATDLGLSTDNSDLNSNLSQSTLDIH
From the text: Using the radioisotope FlashPlate technology, the half inhibitory concentration (IC50) of the compound according to the present invention was detected against histone acetylase p300 (purchased from BPS). […] Under the catalysis of histone acetylase p300, [3H]—Ac group in the isotope-labeled [3H]-Ac-CoA was transferred to the biotinylated histone polypeptide substrate (purchased from GL Biochem Ltd.), and then the biotinylated histone peptide substrate bound to the streptavidin on the FlashPlate board, so that the isotope was close enough to the FlashPlate board. Thus, the radiation energy of isotope could convert the scintillation fluid coated on the FlashPlate board into photons, that was able to be detected. Detailed procedures were as follows:
• 1× reaction buffer: 50 mM Tris-HCl, pH 7.5; 0.01% Tween-20 • Reaction stop solution: 750 μM Ac-CoA solution
Each test compound was dissolved into 10 mM with 100% DMSO, and then each compound was diluted to the desired concentration in Echo 384-well plate. […] 200 nl of 100% DMSO was transferred into the well as the negative control.
p300 was added to 1× reaction buffer to form a 2× enzyme solution (the final concentration of enzyme being 0.2 nM).
The peptide substrate and [3H]-Ac-CoA were added to the 1-fold reaction buffer, to form a 2-fold substrate solution (the final concentration of the substrate being 600 nM and 250 nM, respectively).
10 μl of 2-fold enzyme solution was added to the wells of 384-well reaction plate. […] The plate was centrifuged at 1000 rpm for 1 min and incubated at room temperature for 15 min.
10 μl of 2-fold substrate solution was added to each well of 384-well reaction plate. The plate was centrifuged at 1000 rpm for 1 min, and then reacted at 25° C. for 60 min.
10 μl of reaction stop solution was added to each well of 384-well reaction plate to stop the reaction. 25 μL solution was collected from each well of the test plate and transferred to Flashplate, that was placed at room temperature for 1 h. Then, Flashplate plate was washed three times with 0.1% Tween-20 solution.
4) Reading Data with MicroBeta 2
The data were copied from Microbeta 2. […] The maximum value is the conversion rate of the control DMSO, and the minimum value is the conversion rate of the control without enzyme activity.
The data were imported into Graph Pad Prism5, and the formula “log(inhibitor) vs. response−Variable slope” was used to perform curve fitting, to obtain the half inhibitory concentration (IC50).

Pfeiffer = assay: Inhibition of proliferation of Pfeiffer cells; type: cell-based; conditions: Homo sapiens; Lymphoma cell line Pfeiffer; read-out: IC50 against Pfeiffer
Procedure: as §1, §2

MDA-MB-453 = assay: Inhibition of proliferation of MDA-MB-453 cells; type: cell-based; conditions: Homo sapiens; Breast cancer cell line MDA-MB-453; read-out: IC50 against MDA-MB-453
Procedure: as §1, §2

DU4475 = assay: Inhibition of proliferation of DU4475 cells; type: cell-based; conditions: Homo sapiens, DU-4475; Breast cancer cell line DU4475; read-out: IC50 against DU4475
Procedure: as §1, §2

Z-138 = assay: Inhibition of proliferation of Z-138 cells; type: cell-based; conditions: Homo sapiens; Lymphoma cell line Z-138; read-out: IC50 against Z-138
Procedure: as §1, §2

OCI-AML3 = assay: Inhibition of proliferation of OCI-AML3 cells; type: cell-based; conditions: Homo sapiens, OCI-AML-3; Leukemia cell line OCI-AML3; read-out: IC50 against OCI-AML3
Procedure: as §1, §2

MM.1R = assay: Inhibition of proliferation of MM.1R cells; type: cell-based; conditions: Lymphoma cell line MM.1R; read-out: IC50 against MM.1R
Procedure: as §1, §2

[1] = read-out: IC50 against CWR22RV1 cells
[2] = read-out: IC50 against CWR22RV1 cells (text)

pIC50 (MCF-7)	pIC50 (MOLM-16)	pIC50 (VCAP)	pIC50 (BT-474)	pIC50 (LNCAP)	pIC50 (histone acetylase p300)	pIC50 (MDA-MB-453)	pIC50 (OCI-AML3)	pIC50 (MM.1R)	Structure (SMILES)	pIC50 (HEL)	pIC50 (RL)	pIC50 (CWR22RV1 cells; [1])	pIC50 (CWR22RV1 cells; [2])	pIC50 (Pfeiffer)	pIC50 (DU4475)	pIC50 (Z-138)
≥ 6.30	≥ 6.30	≥ 6.30	≥ 6.30	≥ 6.30	8.80	≥ 6.30	≥ 6.30	≥ 6.30	CNC(=O)Nc1ccc2c(c1)CC[C@@]21OC(=O)N(CC(=O)N2C(C)CC[C@H]2c2cc(F)c(F)c(F)c2)C1=O (stereo in doubt) [Example 205, 1-((R)-3′-(2-((2S,5R)-2-(3,4,5-trifluorophenyl)-5-methylpyrrolidin-1-yl)-2-oxoethyl)-2′,4′-dioxo-2,3-dihydrospiro[indene-1,5′-oxazolidine]-5-yl)-3-methylurea]	5.70 to 6.30	≥ 6.30	≥ 6.30	≥ 6.30	≥ 6.30	5.70 to 6.30	≥ 6.30
≥ 6.30	≥ 6.30	≥ 6.30	≥ 6.30	≥ 6.30	8.80	≥ 6.30	≥ 6.30	≥ 6.30	CNC(=O)Nc1ccc2c(c1)CC[C@@]21OC(=O)N(CC(=O)N2[C@@H](C)CC[C@H]2c2ccc(F)c(F)c2)C1=O [Example 201]	5.70 to 6.30	≥ 6.30	≥ 6.30	≥ 6.30	≥ 6.30	5.70 to 6.30	≥ 6.30
≥ 6.30	≥ 6.30	≥ 6.30	≥ 6.30	≥ 6.30	8.72	≥ 6.30	≥ 6.30	≥ 6.30	CNC(=O)Nc1cc2c(cc1F)[C@@]1(CC2)OC(=O)N(CC(=O)N2[C@@H](C)CC[C@H]2c2ccc(F)c(F)c2)C1=O [Example 389, 1-((R)-3′-(2-((2S,5S)-2-(3,4-difluorophenyl)-5-methylpyrrolidin-1-yl)-2-oxoethyl)-6-fluoro-2′,4′-dioxo-2,3-dihydrospiro[indene-1,5′-oxazolidine]-5-yl)-3-methylurea]	≥ 6.30	≥ 6.30	≥ 6.30	≥ 6.30	≥ 6.30	5.70 to 6.30	≥ 6.30
